Literature values, collected in US20050266042A1, “Methods and apparatus for treatment of aneurysmal tissue” (Medtronic Vascular, Inc., priority 2004, published 2005).

Conditions: for route of elimination / clearance: in vivo

Row | Compound | route of elimination / clearance | further results
1 | CCC(=O)O[C@@H](O[P@](=O)(CCCCc1ccccc1)CC(=O)N1C[C@H](C2CCCCC2)C[C@H]1C(=O)O)C(C)C [fosinopril] | balanced elimination by the liver and kidneys | 
2 | CCOC(=O)[C@H](CCc1ccccc1)N[C@@H](C)C(=O)N1CC2(C[C@H]1C(=O)O)SCCS2 [spirapril] | balanced elimination by the liver and kidneys | 
3 | C[C@H](CS)C(=O)N1CCC[C@H]1C(=O)O [captopril] |  | bioavailability (given orally): about 75%
4 | NCCCC[C@H](N[C@@H](CCc1ccccc1)C(=O)O)C(=O)N1CCC[C@H]1C(=O)O [lisinopril] |  | time to peak concentrations in the plasma (oral administration): about 7 hours
